Patent publication US20260176320A1, “MODULATORS OF G-PROTEIN COUPLED RECEPTORS” (priority 2018, published 2026)
Where two headings read alike, the source gives them in different places.

Legend:
[1] = biological target: T1, GIP-R (Homo sapiens, UniProt P48546); test: HitHunter cAMP assay (GIP-R); format: cell-based; conditions: Table 3A; cAMP; read-out: (Emax) GIP-R
T1 sequence (P48546 22-466): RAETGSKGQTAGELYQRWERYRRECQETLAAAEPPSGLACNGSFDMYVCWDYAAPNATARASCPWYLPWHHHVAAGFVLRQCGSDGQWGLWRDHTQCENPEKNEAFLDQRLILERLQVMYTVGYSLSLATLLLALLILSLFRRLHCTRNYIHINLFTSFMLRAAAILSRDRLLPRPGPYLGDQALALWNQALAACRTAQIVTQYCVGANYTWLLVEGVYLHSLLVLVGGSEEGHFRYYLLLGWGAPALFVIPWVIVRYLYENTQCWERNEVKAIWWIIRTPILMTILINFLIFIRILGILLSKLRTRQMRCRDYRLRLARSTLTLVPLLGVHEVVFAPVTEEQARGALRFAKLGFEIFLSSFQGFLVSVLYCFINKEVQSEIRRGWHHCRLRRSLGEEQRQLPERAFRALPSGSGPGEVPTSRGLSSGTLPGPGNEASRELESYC
Protocol: (§1) Suspension cells were harvested and resuspended in 1×HBSS (+10 mM HEPES, 625 μM IBMX, 0.2% BSA) according to the following procedure: 5 μL of 2× cell suspension+1× antibody were added to each well, where the optimal cell density was 10,000 cells per well in a low volume 384-well plate. Agonist serial dilutions in a separate 384 well dilution plate in a 22-point series of 2× dilutions of agonist in DMSO were performed as follows. 80 μL of the highest concentration of Agonist/DMSO was added to well No. 1. 40 μL was removed from well No. 1 and added it to well No. 2, followed by gentle mixing. […] This process was repeated until well No. 22. Additional serial dilutions for additional agonists were set up in a similar manner. 50 nL of each 2× agonist serial dilution was added in duplicate to the designated agonist rows of the assay plate using the Labcyte ECHO. Assay plate was incubated for 30 minutes at room temperature. Following agonist incubation, 5 μL of cAMP Antibody Reagent was added to all wells. […] Plates were spun down briefly. Assay plate was incubated for 1 hour at room temperature in the dark for the immunocompetition reaction to occur. […] Plates were spun down briefly. Assay plate was incubated O/N at room temperature in the dark. Samples were read on Tecan i-control plate reader using luminescence mode with 300 ms integration time. Data analysis was performed using GraphPad Prism.

[2] = biological target: GLP-1R (Homo sapiens, UniProt P43220); test: HitHunter cAMP assay (GLP-1R); format: cell-based; conditions: cAMP; for Emax: read-out: (Emax) GLP-1R
Chain of GLP-1R (P43220 24-463): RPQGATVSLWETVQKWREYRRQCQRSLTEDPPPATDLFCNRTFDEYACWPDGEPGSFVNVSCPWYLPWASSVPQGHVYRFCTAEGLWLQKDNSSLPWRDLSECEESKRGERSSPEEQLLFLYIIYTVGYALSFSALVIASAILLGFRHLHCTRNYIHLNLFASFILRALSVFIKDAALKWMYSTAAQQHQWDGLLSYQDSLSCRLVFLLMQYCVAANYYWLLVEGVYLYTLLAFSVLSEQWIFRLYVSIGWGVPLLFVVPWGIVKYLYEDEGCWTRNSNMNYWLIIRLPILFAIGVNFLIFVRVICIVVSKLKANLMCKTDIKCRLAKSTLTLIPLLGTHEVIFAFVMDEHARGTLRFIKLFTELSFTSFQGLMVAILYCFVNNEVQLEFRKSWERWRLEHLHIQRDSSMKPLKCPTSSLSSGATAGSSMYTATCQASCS
Protocol: as §1

[3] = Table 3A, read-out: EC50 GLP-1R/nM

| SMILES | Emax [1] [%] | Emax ([2]; Table 3A) [%] | EC50 [2, 3] [nM] | further results |
| --- | --- | --- | --- | --- |
| CCCCCCCCCCCCCCCC(=O)N[C@@H](CCC(=O)NCCCC[C@H](NC(=O)[C@H](CO)NC(=O)[C@@H]1CCCN1C(=O)[C@@H]1CCCN1C(=O)[C@@H]1CCCN1C(=O)[C@H](C)NC(=O)CNC(=O)[C@H](CO)NC(=O)[C@H](CO)NC(=O)[C@@H]1CCCN1C(=O)CNC(=O)CNC(=O)[C@H](C)NC(=O)[C@H](CC(C)C)NC(=O)[C@H](CC(C)C)NC(=O)[C@H](Cc1c[nH]c2ccccc12)NC(=O)[C@H](CC(N)=O)NC(=O)[C@@H](NC(=O)[C@H](Cc1ccccc1)NC(=O)[C@H](CCC(=O)O)NC(=O)C(C)(C)NC(=O)[C@H](C)NC(=O)[C@H](C)NC(=O)[C@H](CCC(N)=O)NC(=O)[C@H](CCCCN)NC(=O)[C@H](CC(=O)O)NC(=O)[C@H](CC(C)C)NC(=O)[C@H](Cc1ccc(O)cc1)NC(=O)[C@@H](NC(=O)[C@H](CO)NC(=O)[C@H](Cc1ccc(O)cc1)NC(=O)[C@H](CC(=O)O)NC(=O)[C@H](CO)NC(=O)[C@@H](NC(=O)[C@H](Cc1ccccc1)NC(=O)[C@@H](NC(=O)CNC(=O)[C@H](CCC(=O)O)NC(=O)CSCC(=O)NCCN1CC[C@@H](O)CC1=O)[C@@H](C)O)[C@@H](C)O)[C@@H](C)CC)C(C)C)C(N)=O)C(=O)O (single isomer, unassigned) [Compound 203] | 44 | – | – | – |
| CCCCCCCCCCCCCCCC(=O)N[C@@H](CCC(=O)NCCCC[C@H](NC(=O)[C@H](CO)NC(=O)[C@@H]1CCCN1C(=O)[C@@H]1CCCN1C(=O)[C@@H]1CCCN1C(=O)[C@H](C)NC(=O)CNC(=O)[C@H](CO)NC(=O)[C@H](CO)NC(=O)[C@@H]1CCCN1C(=O)CNC(=O)CNC(=O)[C@H](C)NC(=O)[C@H](CC(C)C)NC(=O)[C@H](CC(C)C)NC(=O)[C@H](Cc1c[nH]c2ccccc12)NC(=O)[C@H](CC(N)=O)NC(=O)[C@@H](NC(=O)[C@H](Cc1ccccc1)NC(=O)[C@H](CCC(=O)O)NC(=O)C(C)(C)NC(=O)[C@H](C)NC(=O)[C@H](C)NC(=O)[C@H](CCC(N)=O)NC(=O)[C@H](CCCCN)NC(=O)[C@H](CC(=O)O)NC(=O)[C@H](CC(C)C)NC(=O)[C@H](Cc1ccc(O)cc1)NC(=O)[C@@H](NC(=O)[C@H](CO)NC(=O)[C@H](Cc1ccc(O)cc1)NC(=O)[C@H](CC(=O)O)NC(=O)[C@H](CO)NC(=O)[C@@H](NC(=O)[C@H](Cc1ccccc1)NC(=O)[C@@H](NC(=O)CNC(=O)[C@H](CCC(=O)O)NC(=O)CSCC(=O)NCCN1CCC[C@H](C)C1=O)[C@@H](C)O)[C@@H](C)O)[C@@H](C)CC)C(C)C)C(N)=O)C(=O)O (single isomer, unassigned) [Compound 207] | 68 | – | – | – |
| CCCCCCCCCCCCCCCC(=O)N[C@@H](CCC(=O)NCCCC[C@H](NC(=O)[C@H](CO)NC(=O)[C@@H]1CCCN1C(=O)[C@@H]1CCCN1C(=O)[C@@H]1CCCN1C(=O)[C@H](C)NC(=O)CNC(=O)[C@H](CO)NC(=O)[C@H](CO)NC(=O)[C@@H]1CCCN1C(=O)CNC(=O)CNC(=O)[C@H](C)NC(=O)[C@H](CC(C)C)NC(=O)[C@H](CC(C)C)NC(=O)[C@H](Cc1c[nH]c2ccccc12)NC(=O)[C@H](CC(N)=O)NC(=O)[C@@H](NC(=O)[C@H](Cc1ccccc1)NC(=O)[C@H](CCC(=O)O)NC(=O)C(C)(C)NC(=O)[C@H](C)NC(=O)[C@H](C)NC(=O)[C@H](CCC(N)=O)NC(=O)[C@H](CCCCN)NC(=O)[C@H](CC(=O)O)NC(=O)[C@H](CC(C)C)NC(=O)[C@H](Cc1ccc(O)cc1)NC(=O)[C@@H](NC(=O)[C@H](CO)NC(=O)[C@H](Cc1ccc(O)cc1)NC(=O)[C@H](CC(=O)O)NC(=O)[C@H](CO)NC(=O)[C@@H](NC(=O)[C@H](Cc1ccccc1)NC(=O)[C@@H](NC(=O)CNC(=O)[C@H](CCC(=O)O)NC(=O)CSCC(=O)NCCN1CCC[C@@H](C)C1=O)[C@@H](C)O)[C@@H](C)O)[C@@H](C)CC)C(C)C)C(N)=O)C(=O)O (single isomer, unassigned) [Compound 208] | 59 | – | – | – |
| CCCCCCCCCCCCCCCC(=O)N[C@@H](CCC(=O)NCCCC[C@H](NC(=O)[C@H](CO)NC(=O)[C@@H]1CCCN1C(=O)[C@@H]1CCCN1C(=O)[C@@H]1CCCN1C(=O)[C@H](C)NC(=O)CNC(=O)[C@H](CO)NC(=O)[C@H](CO)NC(=O)[C@@H]1CCCN1C(=O)CNC(=O)CNC(=O)[C@H](C)NC(=O)[C@H](CC(C)C)NC(=O)[C@H](CC(C)C)NC(=O)[C@H](Cc1c[nH]c2ccccc12)NC(=O)[C@H](CC(N)=O)NC(=O)[C@@H](NC(=O)[C@H](Cc1ccccc1)NC(=O)[C@H](CCC(=O)O)NC(=O)C(C)(C)NC(=O)[C@H](C)NC(=O)[C@H](C)NC(=O)[C@H](CCC(N)=O)NC(=O)[C@H](CCCCN)NC(=O)[C@H](CC(=O)O)NC(=O)[C@H](CC(C)C)NC(=O)[C@H](Cc1ccc(O)cc1)NC(=O)[C@@H](NC(=O)[C@H](CO)NC(=O)[C@H](Cc1ccc(O)cc1)NC(=O)[C@H](CC(=O)O)NC(=O)[C@H](CO)NC(=O)[C@@H](NC(=O)[C@H](Cc1ccccc1)NC(=O)[C@@H](NC(=O)CNC(=O)[C@@H](CCc1nn[nH]n1)NC(=O)CSCC(=O)NCCN1CCCCC1=O)[C@@H](C)O)[C@@H](C)O)[C@@H](C)CC)C(C)C)C(N)=O)C(=O)O [Compound 222] | – | 99 | 1 to 10 | – |
| CCCCCCCCCCCCCCCC(=O)N[C@@H](CCC(=O)NCCCC[C@H](NC(=O)[C@H](CO)NC(=O)[C@@H]1CCCN1C(=O)[C@@H]1CCCN1C(=O)[C@@H]1CCCN1C(=O)[C@H](C)NC(=O)CNC(=O)[C@H](CO)NC(=O)[C@H](CO)NC(=O)[C@@H]1CCCN1C(=O)CNC(=O)CNC(=O)[C@H](C)NC(=O)[C@H](CC(C)C)NC(=O)[C@H](CC(C)C)NC(=O)[C@H](Cc1c[nH]c2ccccc12)NC(=O)[C@H](CC(N)=O)NC(=O)[C@@H](NC(=O)[C@H](Cc1ccccc1)NC(=O)[C@H](CCC(=O)O)NC(=O)C(C)(C)NC(=O)[C@H](C)NC(=O)[C@H](C)NC(=O)[C@H](CCC(N)=O)NC(=O)[C@H](CCCCN)NC(=O)[C@H](CC(=O)O)NC(=O)[C@H](CC(C)C)NC(=O)[C@H](Cc1ccc(O)cc1)NC(=O)[C@@H](NC(=O)[C@H](CO)NC(=O)[C@H](Cc1ccc(O)cc1)NC(=O)[C@H](CC(=O)O)NC(=O)[C@H](CO)NC(=O)[C@@H](NC(=O)[C@H](Cc1ccccc1)NC(=O)[C@@H](NC(=O)CNC(=O)[C@H](CCC(=O)O)NC(=O)C(=O)NCCN1CCCCC1=O)[C@@H](C)O)[C@@H](C)O)[C@@H](C)CC)C(C)C)C(N)=O)C(=O)O [Compound 215] | – | 103 | 1 to 10 | – |
| CCCCCCCCCCCCCCCC(=O)N[C@@H](CCC(=O)NCCCC[C@H](NC(=O)[C@H](CO)NC(=O)[C@@H]1CCCN1C(=O)[C@@H]1CCCN1C(=O)[C@@H]1CCCN1C(=O)[C@H](C)NC(=O)CNC(=O)[C@H](CO)NC(=O)[C@H](CO)NC(=O)[C@@H]1CCCN1C(=O)CNC(=O)CNC(=O)[C@H](C)NC(=O)[C@H](CC(C)C)NC(=O)[C@H](CC(C)C)NC(=O)[C@H](Cc1c[nH]c2ccccc12)NC(=O)[C@H](CC(N)=O)NC(=O)[C@@H](NC(=O)[C@H](Cc1ccccc1)NC(=O)[C@H](CCC(=O)O)NC(=O)C(C)(C)NC(=O)[C@H](C)NC(=O)[C@H](C)NC(=O)[C@H](CCC(N)=O)NC(=O)[C@H](CCCCN)NC(=O)[C@H](CC(=O)O)NC(=O)[C@H](CC(C)C)NC(=O)[C@H](Cc1ccc(O)cc1)NC(=O)[C@@H](NC(=O)[C@H](CO)NC(=O)[C@H](Cc1ccc(O)cc1)NC(=O)[C@H](CC(=O)O)NC(=O)[C@H](CO)NC(=O)[C@@H](NC(=O)[C@H](Cc1ccccc1)NC(=O)[C@@H](NC(=O)CNC(=O)[C@H](CCC(=O)O)NC(=O)CSCC(=O)NCCN1C(=O)CC(C)(C(C)C)C1=O)[C@@H](C)O)[C@@H](C)O)[C@@H](C)CC)C(C)C)C(N)=O)C(=O)O (mixture of isomers) [Compound 101] | – | 92 | – | EC50 ([2]; EC50 GLP-1R/nM, Table 3): 10 to 100 nM; EC50 ([2]; EC50 GLP-1R/nM, Table 3A): 10 to 100 nM; Emax ([2]; Table 3): 92% |
